{"source": "paper PMC10510102", "about": "“Efficient Ligand Discovery Using Sulfur(VI) Fluoride Reactive Fragments” (ACS Chemical Biology, 2023)", "key": {"BCL6 BTB/POZ domain": {"biological_target": "BCL6 BTB/POZ domain (Homo sapiens, UniProt P41182, C67R/C84N/C8Q)", "assay": "Conventional differential scanning fluorimetry (DSF)", "assay_type": "binding", "parameters": "hBCL6-Flag 3Cmut (5-129) produced in house; FLAG (C); made in house", "settings": "for Tm: 10 μM protein, covalent complex (500 μM SF, 6 or 24 h) or 200 μM GSK137, mean ± SD, three replicates; for ΔTm: relative to unmodified BCL6", "protocol": "We subsequently analyzed protein-fragment interactions using differential scanning fluorimetry (DSF) to explore the impact of these binding events on protein stability.[45] […] […]; this illustrates the impact of covalent modification on protein–ligand binding. […]\n8.2. Conventional differential scanning fluorimetry (DSF)\nBCL6-SF covalent complex preparation:\nSFs 2f–i, 2p, 2q, 2s, and 2t in DMSO-d 6 (200 mM stock) or pure DMSO-d 6 were added to crystallizable BCL6 BTB/POZ domain (10 µM) in 20 mM Tris pH 8.5 and 200 mM NaCl. The reactions were incubated at 20 °C for 6 h (meta-substituted benzamide fragments) or 24 h (azetidinyl/piperidinyl fragments). Final concentrations: 10 µM protein, 500 µM SF, DMSO 0.25% v/v in 200 µL. Unreacted compound and DMSO-d 6 were removed by buffer-exchanging protein solutions into 20 mM Tris pH 8.5, 200 mM NaCl and 5% v/v glycerol inside Vivaspin 500 PES Centrifugal Concentration units. The protein was concentrated to 0.6–1.3 mg/mL within the units, according to UV-vis absorption spectrophotometry via a Nanodrop ND-1000 instrument. Protein was flash frozen using a dry ice/ethanol bath prior to […]\nDifferential scanning fluorimetry assay:\nGSK137 (40 mM stock) or pure DMSO-d 6 were added to crystallizable BCL6 BTB/POZ domain (11 µM) in 20 mM Tris pH 8.5, 200 mM NaCl and 5% v/v glycerol to give solutions containing: 11 µM protein, DMSO 0.63% v/v and 222 µM GSK137 (where applicable).\nConcentrated protein-SF complexes were also thawed and diluted to 11 µM in 20 mM Tris pH 8.5, […] and 5% v/v glycerol.\nSYPRO Orange dye (Invitrogen S6650) in extra dilution buffer (50×, eq. 1% v/v DMSO) was added to give assay-ready solutions with final concentrations: 10 µM protein, SYPRO 5×, DMSO 0.1% v/v in volume 80 µL for the protein-SF covalent complexes or 10 µM protein, SYPRO 5×, DMSO 0.6% v/v in volume 100 µL with and without 200 µM GSK137.\nEach solution was aliquoted (3 × 20 µL) into wells of an opaque 384-well PCR microplate (Axygen PCR-384-LC480-W) and coated with silicone oil DC 200 (5 µL; Fluka Chemicals 85413). The microplate was centrifuged (1 min, 200 g) prior to insertion into a Fluodia T70 spectrophotometer (Photal Instruments). The fluorescence intensity was detected (emission wavelength: […]) as the plate instrument interior was heated from 27–75 °C using a temperature stepping mode (waiting time before measurement: 60 s; fluorescence measurement interval: 45 s). The approximate temperature gradient was 0.5 °C min-1.\n(§1) The fluorescence intensity data from the individual replicates of each sample type were normalized and identically truncated within GraphPad Prism 5.0.4.11 These values were subsequently fitted to equation (4) corresponding to a Boltzmann sigmoid in order to obtain the melting temperature (“V50”; T m) of the protein:\n(§2) Y=BOTTOM+((TOP+BOTTOM)/(1+exp((V50–X)/SLOPE))) (4)\n(§3) The three obtained T m values were averaged to give a final T m value in each case. The normalized fluorescence data for the three replicates of each sample were averaged to yield a single dataset for each case, which were then plotted in GraphPad Prism 5.0.4 to give the plots shown in the manuscript.11\n(§4) Table S9. Thermal melting temperatures of unmodified and covalently modified BCL6 BTB/POZ domain as determined by differential scanning fluorimetry measurements.\n(§5) The arithmetic mean and standard deviation from three replicates are shown.\n(§6) Hit Chemotype Protein Species Tm / °C ΔT m / °C […]\n(§7) meta-Substituted Benzamide BCL6 + 2g 70.4 ± 0.3 +11.7\n(§8) Azetidinyl Fragments BCL6 + 2h 55.5 ± 0.1 −3.2 […]\n8.3. Protocol for kinetic analyzes (BCL6)\nThe (resynthesized and purified) SF hits (2f–i) were plated into seven Greiner 384 white low volume plate from a 10 mM source in DMSO. Differing volumes were added such that the final concentrations for each compound would be: 100, 50, 20, 10, or 5 µM after adding 15 µL of protein stock solution per well. […]"}, "BCL6": {"biological_target": "T1, BCL6 (Homo sapiens, UniProt P41182, C67R/C84N/C8Q)", "T1 construct": "hBCL6-Flag-6H-Avi 3Cmut (5–129) produced as part of the GSK/GenScript collaboration; Flag (C); 6H (His6) (C); Avi (C)", "assay": "Kinetic analyses of covalent modification, intact protein LC-MS", "assay_type": "binding", "settings": "0.5 μM BCL6; 5-100 μM SF; 4 °C", "excerpt": "as §1, §2, §3, §4, §5, §6, §7, §8\n8.3. Protocol for kinetic analyzes (BCL6) […]\nBCL6 BTB domain (BCL65–129(C8Q,C67R,C84N)-FLAG, 10 µM) was incubated with each compound (500 µM, eq. 0.25% v/v DMSO) in 20 mM Tris pH 8.5 and 150 mM NaCl (2 mL) at 20 °C for 6 h. […] The protein-fragment complex was concentrated to >6 mg/mL, as determined by spectrophotometry. […]"}}}
{"smiles": "CN(C)C(=O)Nc1cccc(CNC(=O)Cc2ccc(S(=O)(=O)F)cc2)c1", "note": "[2f]", "values": [{"measurement": "Tm", "setting": "BCL6 BTB/POZ domain", "result": "66.6 ± 0.3", "unit": "°C"}, {"measurement": "ΔTm", "setting": "BCL6 BTB/POZ domain", "result": "+7.9 °C"}, {"measurement": "Ki", "setting": "BCL6", "result": 56, "unit": "µM"}]}
{"smiles": "CC(=O)Nc1cccc(CNC(=O)Cc2ccc(S(=O)(=O)F)cc2)c1", "note": "[2g]", "values": [{"measurement": "Tm", "setting": "BCL6 BTB/POZ domain", "result": "70.4 ± 0.3", "unit": "°C"}, {"measurement": "ΔTm", "setting": "BCL6 BTB/POZ domain", "result": "+11.7 °C"}, {"measurement": "Ki", "setting": "BCL6", "result": 80, "unit": "µM"}]}
{"smiles": "O=C(Cc1ccc(S(=O)(=O)F)cc1)N1CC(Oc2ccc(F)c(F)c2)C1", "note": "[2h]", "values": [{"measurement": "Tm", "setting": "BCL6 BTB/POZ domain", "result": "55.5 ± 0.1", "unit": "°C"}, {"measurement": "ΔTm", "setting": "BCL6 BTB/POZ domain", "result": "−3.2", "unit": "°C"}]}
{"smiles": "NC(=O)c1ccccc1OC1CN(C(=O)Cc2ccc(S(=O)(=O)F)cc2)C1", "note": "[2i]", "values": [{"measurement": "Tm", "setting": "BCL6 BTB/POZ domain", "result": "59.9 ± 0.4", "unit": "°C"}, {"measurement": "ΔTm", "setting": "BCL6 BTB/POZ domain", "result": "+1.2 °C"}]}
